Values of other authors in article PMC7618104, “The GLP-1 analogue, exendin-4, improves bone material properties and strength through a central relay in ovariectomized mice” (American journal of physiology. Endocrinology and metabolism, 2025).
Ends that are not written are not given here.

Columns and labels:
brain = details: in vivo; cited from earlier work
Excerpt: (§1) Taken altogether, these studies might support a brain entry through adsorptive transcytosis across brain endothelial cells. The l ...

[1] = test system: individuals in randomized clinical trials; details: cited from earlier work
Excerpt: (§2) Previously, we and others have highlighted the beneficial role of several gut hormones on bone physiology ([5]). Among gut hormones, glucagon-like peptide-1 (GLP-1) was reported to be beneficial for bone strength. Indeed, animals with a genetic impairment of the GLP-1 receptor (GLP-1r) presented with reduced bone mass, deterioration of bone microarchitecture and alterations of bone material properties, especially enzymatic collagen crosslinking, that jeopardized bone strength ([6], [7]). In humans, GLP-1r gene polymorphisms have also been reported to impact bone mineral density and mass ([8]) ...

[2] = test system: streptozotocin-induced type 1 diabetes mellitus; details: cited from earlier work
humans = details: exogenous GLP-1, humans; cited from earlier work
Excerpt: as §2

osteoblast cultures = details: in vitro study; cited from earlier work
Excerpt: These observations formed the basis for investigating the potential utility of a GLP-1r agonist for the management of bone fragility. Ex-4 has already been administered subcutaneously in preclinical models of bone fragility, including the OVX model used in the present study. Previous studies have reported positive effects of Ex-4 that increased bone mineral density, trabecular microstructure and circulating calcitonin leve ...

CNS = details: mouse, in vivo, iv; cited from earlier work
Excerpt: as §1

Substance | brain entry after peripheral administration (brain) | fracture in individuals affected by type 2 diabetes mellitus [1] | further results
liraglutide | reported to enter the brain parenchyma | contribute to reduce fracture | bone resistance to fracture [2]: able to enhance bone resistance to fracture
semaglutide | reported to enter the brain parenchyma |  | 
lixisenatide |  | contribute to reduce fracture | 
glucagon-like peptide-1 (HAEGTFTSDVSSYLEGQAAKEFIAWLVKGR; ends and bridges not checked; UniProt P01275 98-127, looked up) [GLP-1, gut hormone] |  |  | bone remodeling (humans): rapidly modulates bone remodeling; collagen maturity in vitro (osteoblast cultures): no direct positive effects of GLP-1 on collagen maturity
[Ser8]GLP-1: radiolabeled [Ser8]GLP-1, a stable analogue of GLP-1 (HSEGTFTSDVSSYLEGQAAKEFIAWLVKGRG; also: radiolabeled; UniProt P01275 98-128, looked up, variant A8S) |  |  | CNS access, inhibition by excess unlabeled peptide or exendin antagonist (CNS): not inhibited by excess doses
